In patent US11111237B2, “Bicyclic compound and use thereof” (SK BIOPHARMACEUTICALS CO., LTD., priority 2019, dated 2021):

Target: PRMT5-MEP50 enzyme complex (Homo sapiens (Human), UniProt O14744)
Experiment: PRMT5 enzyme activity in vitro assay (methylation of histone H4R3, ELISA absorbance at 450 nm)
Format: biochemical
Settings: SAM, histone H4 peptide, room temperature 2 hours, 8 points from 10 μM to 0.128 nM
Summary of the method: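 Human PRMT5-MEP50 was prepared at 5 μg/mL with SAM at 2 μM and reacted 2 h at room temperature on plate-coated histone H4 (1-20) peptide. An 8-point 1:5 compound series ran from 10 μM to 0.128 nM. H4R3 methylation was detected by antibody/HRP ELISA at 450 nm to give IC50.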

Chain of PRMT5-MEP50 enzyme complex (O14744 2-637): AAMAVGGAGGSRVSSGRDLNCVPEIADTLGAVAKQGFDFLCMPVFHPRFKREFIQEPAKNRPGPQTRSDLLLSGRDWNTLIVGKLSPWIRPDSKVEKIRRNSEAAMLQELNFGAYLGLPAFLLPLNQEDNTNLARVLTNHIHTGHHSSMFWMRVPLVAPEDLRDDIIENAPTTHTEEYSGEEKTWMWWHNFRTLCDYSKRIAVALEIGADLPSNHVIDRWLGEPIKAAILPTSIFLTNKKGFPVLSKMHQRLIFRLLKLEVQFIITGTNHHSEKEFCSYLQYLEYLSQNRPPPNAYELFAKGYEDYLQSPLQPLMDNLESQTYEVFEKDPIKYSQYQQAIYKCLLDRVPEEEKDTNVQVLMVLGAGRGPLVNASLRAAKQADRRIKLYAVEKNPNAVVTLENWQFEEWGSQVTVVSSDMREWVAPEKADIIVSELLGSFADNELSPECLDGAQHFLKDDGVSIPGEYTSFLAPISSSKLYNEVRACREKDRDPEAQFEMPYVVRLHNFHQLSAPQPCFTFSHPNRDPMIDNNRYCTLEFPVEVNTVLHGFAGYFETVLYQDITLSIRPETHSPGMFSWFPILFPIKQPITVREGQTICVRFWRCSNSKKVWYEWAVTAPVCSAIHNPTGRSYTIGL
Chain of PRMT5-MEP50 enzyme complex (Q9BQA1 2-342 partner): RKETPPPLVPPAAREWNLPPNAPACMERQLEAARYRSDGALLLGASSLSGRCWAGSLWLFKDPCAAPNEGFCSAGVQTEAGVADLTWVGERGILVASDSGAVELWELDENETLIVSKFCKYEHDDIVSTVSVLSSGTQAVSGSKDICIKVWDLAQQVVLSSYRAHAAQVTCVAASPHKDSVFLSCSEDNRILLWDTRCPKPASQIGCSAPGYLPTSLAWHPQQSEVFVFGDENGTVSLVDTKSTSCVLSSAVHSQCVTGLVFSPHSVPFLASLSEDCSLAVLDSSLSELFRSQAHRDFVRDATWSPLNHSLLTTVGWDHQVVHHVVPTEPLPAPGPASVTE

Row | SMILES | IC50 [nM]
1 | O=C1c2ccc(OC3CC4CCC(C3)N4CCF)cc2OCCN1C[C@H](O)CN1CCc2ccccc2C1 (stereo partly drawn) [Example 215] | 100 to 1000
2 | CN1CCOC(COc2ccc3c(c2)OCCN(C[C@H](O)CN2CCc4ccccc4C2)C3=O)C1 (stereo partly drawn) [Example 104, 4-[(2R)-3-(3,4-dihydro-1H-isoquinolin-2-yl)-2-hydroxy-propyl]-8-[(4-methylmorpholin-2-yl)methoxy]-2,3-dihydro-1,4-benzoxazepin-5-one] | 100 to 1000
3 | CCN1CCC(Oc2ccc3c(c2)OC(C)(C)CN(C[C@H](O)CN2CCc4ccccc4C2)C3=O)CC1 [Example 110, 4-[(2R)-3-(3,4-dihydro-1H-isoquinolin-2-yl)-2-hydroxy-propyl]-8-[(1-ethyl-4-piperidyl)oxy]-2,2-dimethyl-3H-1,4-benzoxazepin-5-one] | 100 to 1000
4 | CCN1CCC(Oc2ccc3c(c2)N(C)CCN(C[C@H](O)CN2CCc4ccccc4C2)C3=O)C(F)C1 (stereo partly drawn) [Example 136, 4-[(2R)-3-(3,4-dihydro-1H-isoquinolin-2-yl)-2-hydroxy-propyl]-8-[(1-ethyl-3-fluoro-4-piperidyl)oxy]-1-methyl-2,3-dihydro-1,4-benzodiazepin-5-one] | 100 to 1000
5 | CC1(C)CN(C[C@H](O)CN2CCc3ccccc3C2)C(=O)c2ccc(CN3CC4(COC4)C3)cc2O1 [Example 170, 4-[(2R)-3-(3,4-dihydro-1H-isoquinolin-2-yl)-2-hydroxy-propyl]-2,2-dimethyl-8-(2-oxa-6-azaspiro[3.3]heptan-6-ylmethyl)-3H-1,4-benzoxazepin-5-one] | 100 to 1000
6 | CCOCCN1CCC(Oc2ccc3c(c2)O[C@H](C)CN(C[C@H](O)CN2CCc4ccccc4C2)C3=O)CC1 [Example 240, (2R)-4-[(2R)-3-(3,4-dihydro-1H-isoquinolin-2-yl)-2-hydroxy-propyl]-8-[[1-(2-ethoxyethyl)-4-piperidyl]oxy]-2-methyl-2,3-dihydro-1,4-benzoxazepin-5-one] | 100 to 1000
7 | CN1CCN(C[C@H](O)CN2CCc3ccccc3C2)C(=O)c2ccc(C3=CCN(C(=O)OC(C)(C)C)CC3)cc21 [Example 120, tert-butyl 4-[4-[(2R)-3-(3,4-dihydro-1H-isoquinolin-2-yl)-2-hydroxy-propyl]-1-methyl-5-oxo-2,3-dihydro-1,4-benzodiazepin-8-yl]-3,6-dihydro-2H-pyridine-1-carboxylate] | 1 to 100
8 | O=C1c2ccc(CN3CCCCC3)cc2OCCN1C[C@H](O)CN1CCc2ccccc2C1 [Example 23, 4-[(2R)-3-(3,4-dihydro-1H-isoquinolin-2-yl)-2-hydroxy-propyl]-8-(1-piperidylmethyl)-2,3-dihydro-1,4-benzoxazepin-5-one] | 1 to 100
9 | O=C1c2ccc(C3=CCNCC3)cc2OCCN1C[C@H](O)CN1CCc2ccccc2C1 [Example 15, 4-[(2R)-3-(3,4-dihydro-1H-isoquinolin-2-yl)-2-hydroxy-propyl]-8-(1,2,3,6-tetrahydropyridin-4-yl)-2,3-dihydro-1,4-benzoxazepin-5-one] | 1 to 100
10 | CC(c1ccc2c(c1)OCCN(C[C@H](O)CN1CCc3ccccc3C1)C2=O)N1CCOCC1 (stereo partly drawn) [Example 221, 4-[(2R)-3-(3,4-dihydro-1H-isoquinolin-2-yl)-2-hydroxy-propyl]-8-(1-morpholinoethyl)-2,3-dihydro-1,4-benzoxazepin-5-one] | 100 to 1000
11 | CC1CN(C[C@H](O)CN2CCc3ccccc3C2)C(=O)c2ccc(OC3CCN(C)CC3)nc2O1 (stereo partly drawn) [Example 144, 4-[(2R)-3-(3,4-dihydro-1H-isoquinolin-2-yl)-2-hydroxypropyl]-2-methyl-8-[(1-methyl-4-piperidyl)oxy]-2,3-dihydropyrido[3,2-f][1,4]oxazepin-5-one] | 100 to 1000
12 | CC1CN(C[C@H](O)CN2CCc3ccccc3C2)C(=O)c2ccc(OC3CCN(C)CC3)cc2O1 (stereo partly drawn) [Example 141, 4-[(2R)-3-(3,4-dihydro-1H-isoquinolin-2-yl)-2-hydroxypropyl]-2-methyl-8-[(1-methyl-4-piperidyl)oxy]-2,3-dihydro-1,4-benzoxazepin-5-one] | 1 to 100
13 | CC(=O)N1CC(Oc2ccc3c(c2)O[C@H](C)CN(C[C@H](O)CN2CCc4ccccc4C2)C3=O)C1 [Example 142, (2R)-8-(1-acetylazetidin-3-yl)oxy-4-[(2R)-3-(3,4-dihydro-1H-isoquinolin-2-yl)-2-hydroxypropyl]-2-methyl-2,3-dihydro-1,4-benzoxazepin-5-one] | 1 to 100
14 | CC(C)(O)CN1CCC(Oc2ccc3c(c2)OCCN(C[C@H](O)CN2CCc4ccccc4C2)C3=O)CC1 [Example 238, 4-[(2R)-3-(3,4-dihydro-1H-isoquinolin-2-yl)-2-hydroxy-propyl]-8-[[1-(2-hydroxy-2-methyl-propyl)-4-piperidyl]oxy]-2,3-dihydro-1,4-benzoxazepin-5-one] | 100 to 1000
15 | CC1(C)CN(C[C@H](O)CN2CCc3ccccc3C2)C(=O)c2ccc(CN3CCOCC3)nc2O1 [Example 192, 4-[(2R)-3-(3,4-dihydro-1H-isoquinolin-2-yl)-2-hydroxy-propyl]-2,2-dimethyl-8-(morpholinomethyl)-3H-pyrido[3,2-f][1,4]oxazepin-5-one] | 100 to 1000
16 | CCN1CC(COc2ccc3c(c2)OCCN(C[C@H](O)CN2CCc4ccccc4C2)C3=O)C1 [Example 97, 4-[(2R)-3-(3,4-dihydro-1H-isoquinolin-2-yl)-2-hydroxy-propyl]-8-[(1-ethylazetidin-3-yl)methoxy]-2,3-dihydro-1,4-benzoxazepin-5-one] | 100 to 1000
17 | O=C1c2ccc(C(=O)N3CC4CCC3C4)cc2OCCN1C[C@H](O)CN1CCc2ccccc2C1 (stereo partly drawn) [Example 188, 8-(2-azabicyclo[2.2.1]heptane-2-carbonyl)-4-[(2R)-3-(3,4-dihydro-1H-isoquinolin-2-yl)-2-hydroxy-propyl]-2,3-dihydro-1,4-benzoxazepin-5-one] | 100 to 1000
18 | CC(C)N1CCC[C@H]1COc1ccc2c(c1)OCCN(C[C@H](O)CN1CCc3ccccc3C1)C2=O [Example 101, 4-[(2R)-3-(3,4-dihydro-1H-isoquinolin-2-yl)-2-hydroxy-propyl]-8-[[(2S)-1-isopropylpyrrolidin-2-yl]methoxy]-2,3-dihydro-1,4-benzoxazepin-5-one] | 100 to 1000
19 | O=C(c1ccc2c(c1)OCCN(C[C@H](O)CN1CCc3ccccc3C1)C2=O)N1CCCC1 [Example 175, 4-[(2R)-3-(3,4-dihydro-1H-isoquinolin-2-yl)-2-hydroxy-propyl]-8-(pyrrolidin-1-carbonyl)-2,3-dihydro-1,4-benzoxazepin-5-one] | 100 to 1000
20 | CN1CCN(C[C@H](O)CN2CCc3ccccc3C2)C(=O)c2ccc(OC3CCN(C4COC4)CC3)cc21 [Example 129, 4-[(2R)-3-(3,4-dihydro-1H-isoquinolin-2-yl)-2-hydroxy-propyl]-1-methyl-8-[[1-(oxetan-3-yl)-4-piperidyl]oxy]-2,3-dihydro-1,4-benzodiazepin-5-one] | 100 to 1000
21 | CN1CCN(C[C@H](O)CN2CCc3ccccc3C2)C(=O)c2ccc(OC3CCN(C4CCOC4)CC3)cc21 (stereo partly drawn) [Example 128, 4-[(2R)-3-(3,4-dihydro-1H-isoquinolin-2-yl)-2-hydroxy-propyl]-1-methyl-8-[(1-tetrahydrofuran-3-yl-4-piperidyl)oxy]-2,3-dihydro-1,4-benzodiazepin-5-one] | 100 to 1000
22 | CCN1CCC(Oc2ccc3c(c2)N(C)CCN(C[C@H](O)CN2CCc4ccccc4C2)C3=O)CC1 [Example 126, 4-[(2R)-3-(3,4-dihydro-1H-isoquinolin-2-yl)-2-hydroxy-propyl]-8-[(1-ethyl-4-piperidyl)oxy]-1-methyl-2,3-dihydro-1,4-benzodiazepin-5-one] | 100 to 1000
23 | O=C(c1ccc2c(c1)OCCN(C[C@H](O)CN1CCc3ccccc3C1)C2=O)N1CCCC(F)C1 (stereo partly drawn) [Example 194, 4-[(2R)-3-(3,4-dihydro-1H-isoquinolin-2-yl)-2-hydroxy-propyl]-8-(3-fluoropiperidine-1-carbonyl)-2,3-dihydro-1,4-benzoxazepin-5-one] | 100 to 1000
24 | O=C1c2ccc(OC(F)(F)F)cc2CCCN1C[C@H](O)CN1CCc2ccccc2C1 [Example 6, 2-[(2R)-3-(3,4-dihydro-1H-isoquinolin-2-yl)-2-hydroxy-propyl]-7-(trifluoromethoxy)-4,5-dihydro-3H-2-benzazepin-1-one] | 1 to 100
25 | CCN1CCOC(COc2ccc3c(c2)OCCN(C[C@H](O)CN2CCc4ccccc4C2)C3=O)C1 (stereo partly drawn) [Example 105, 4-[(2R)-3-(3,4-dihydro-1H-isoquinolin-2-yl)-2-hydroxy-propyl]-8-[(4-ethylmorpholin-2-yl)methoxy]-2,3-dihydro-1,4-benzoxazepin-5-one] | 100 to 1000
26 | O=C1c2ccc(CN3CCCC3)cc2OCCN1C[C@H](O)CN1CCc2ccccc2C1 [Example 24, 4-[(2R)-3-(3,4-dihydro-1H-isoquinolin-2-yl)-2-hydroxy-propyl]-8-(pyrrolidin-1-ylmethyl)-2,3-dihydro-1,4-benzoxazepin-5-one] | 1 to 100
27 | CC1COCCN1C(=O)c1ccc2c(c1)OCCN(C[C@H](O)CN1CCc3ccccc3C1)C2=O (stereo partly drawn) [Example 191, 4-[(2R)-3-(3,4-dihydro-1H-isoquinolin-2-yl)-2-hydroxy-propyl]-8-(3-methylmorpholin-4-carbonyl)-2,3-dihydro-1,4-benzoxazepin-5-one] | 100 to 1000
